The nature of series [1]: Dissolution study, paddle apparatus, phosphate buffer pH 6.8. Type of series: physicochemical. The conditions noted are these: phosphate buffer pH 6.8, 37 °C, 50 rpm; after one hour (plateau). The procedure: (§1) The injection volume differed depending on the assay. […] The method’s duration was 12 min.
(§2) Phosphate buffer at pH 6.8 was prepared according to the following description: in a 1000 mL volumetric flask, we placed 250 mL of 0.2 N potassium dihydrogen phosphate solution, then added 112 mL of 0.2 N sodium hydroxide solution, and filled the mixture up to 1000 mL with distilled water. High-quality pure water was prepared using a Direct-Q 3 UV purification system (Millipore, Molsheim, France, model Exil SA 67120).
The dissolution study was performed on the paddle apparatus (Agilent 708-DS dissolution apparatus, Santa Clara, CA, USA). The amount of the compound and systems corresponding to 7.0 mg of each plant-origin active ingredient was added to the gelatin capsule, placed in a spring used as a sinker, and then added to the dissolution medium. The vessels were filled with 500 mL of phosphate buffer, pH 6.8; the temperature was maintained at 37 °C, and the paddles were set at a stirring speed of 50 rotations per minute. The 2.0 mL samples were withdrawn at predetermined time points (5 min, 15 min, 30 min, 1 h, 2 h, 3 h, 4 h, 5 h, and 6 h) with the replacement of equal volumes of temperature-equilibrated media.

Series [2] can be described thus: Apparent solubility study in phosphate buffer pH 6.8. It is filed as physicochemical. The method, then:
as §1, §2
An excess amount of raw compounds and systems (corresponding to 1.5 mg of each substance) was placed in a 10 mL glass tube; then, 2.0 mL of phosphate buffer (pH 6.8) was added and left at room temperature for 3 h.

A short description of a further series: in vitro. The settings on record: PAMPA, pH 6.8. The method, then: Concentrations of curcumin and piperine during solubility, dissolution rate, and permeability studies were measured by high-performance liquid chromatography with the DAD detector (HPLC-DAD). In this study, a Shimadzu Nexera system (Shimadzu Corp., Kyoto, Japan) was used, equipped with an SCL-40 system controller, a DGU-403 degassing unit, a LC-40B XR solvent delivery module, a SIL-40C autosampler, a CTO-40C column oven, and a SPD-M40 photodiode array detector. For the stationary phase, a Dr. Maisch ReproSil-Pur Basic-C18 100 Å column with 5 µm particle size and 250 × 4.60 mm (Dr. Maisch, Ammerbuch-Entringen, Germany) was used. The mobile phase was acetonitrile:0.1% acetic acid (85:15 v/v). The mobile phase was vacuum-filtered through a 0.45 µm nylon filter (Phenomenex, Torrance, CA, USA). The experimental conditions were as follows: 0.5 mL/min flow rate, wavelengths of 420 nm for curcumin and 340 nm for piperine, and a column temperature of 30 °C. The injection volume differed depending on the assay. […] The method’s duration was 12 min. […]
In vitro gastrointestinal (GIT) and blood–brain barrier (BBB) permeability were studied using the PAMPA (Parallel Artificial Membrane Permeability Assay) models. […] The Papp factor was calculated according to the previously reported method. […] The results were expressed as a concentration in the acceptor solution.

Series [3] is described as follows: PAMPA BBB permeability model. It is filed as in vitro ADME. The conditions noted are these: pH 7.4. The method, then:
as §1
The sandwich consists of two 96-well microfilter plates.

The structures appear in SMILES notation. Converted amounts (≈) assume the structure as drawn.

Experimental findings from publication PMC10180276, “Hot-Melt Extrusion as an Effective Technique for Obtaining an Amorphous System of Curcumin and Piperine with Improved Properties Essential for Their Better Biological Activities” (Molecules, 2023) are described below.

Take `COc1cc(/C=C/C(=O)CC(=O)/C=C/c2ccc(O)c(OC)c2)ccc1O` [curcumin]: in series [1], the “curcumin dissolved, % of the dose” value is reported as 2.54 ± 0.15%. In addition, in series [2], the solubility at 3 h worked out at 0.1 µg/mL (≈ 0.271 µM). The Papp at 3 h in the series “in vitro” came out at 1.63 ×10⁻⁶ cm/s; in series [3], 2.63 ×10⁻⁶ cm/s.
Take `O=C(/C=C/C=C/c1ccc2c(c1)OCO2)N1CCCCC1` [piperine]: in series [1], the “piperine dissolved, % of the dose” value worked out at 22.63 ± 0.67%. In addition, the solubility at 3 h in series [2] amounted to 6 ± 0.1 µg/mL (≈ 21 µM). For the same molecule, the apparent permeability coefficient (Papp) at 3 h worked out at 8.18 ×10⁻⁶ cm/s in “in vitro” and 57.7 ×10⁻⁶ cm/s in series [3].
